{"source": "patent US9611500B2", "about": "“Method for detecting the presence of the viable cells in an endodontic sample” (KINGS COLLEGE LONDON, priority 2011, dated 2017)", "system": "Multispecies mature biofilm from clinical isolates (Actinomyces radicidentis, Enterococcus faecalis, Propionibacterium acnes, Streptococcus epidermidis …)", "test": "Viable post-experimental counts of multi-species biofilms on root halves after irrigation", "type": "cell-based", "settings": "1% NaOCl solution irrigation (5 ml) of root canals of extracted teeth with two-week biofilm; paper point sampling; FAA plates incubated anaerobically 7 days; triplicates", "source_text": "Twenty freshly extracted, single rooted teeth were obtained under ethical Approval (South East London ethical approval 10/H0804/056). Each tooth had the crown removed to obtain 15 mm long specimens, using a 0.3 mm thickness diamond wafering blade (Extec, Enfield, Conn., USA) on a 11-1180 Isomet low speed saw (Buehler, Düsseldorf, Germany). Root canal patency was confirmed using an ISO 10 K-file. Canals were instrumented with Gates Glidden (nr. 2-4) for coronal flaring followed by ProTaper F3 instrumentation and apical instrumentation with an ISO 45 K-file 1 mm short of the working length. Irrigation throughout the instrumentation was undertaken with sterile saline. […]\nMultispecies mature biofilm from clinical isolates, identified through sequencing (Actinomyces radicidentis, Enterococcus faecalis, Propionibacterium acnes, Streptococcus epidermidis, Streptococcus oxalis) were grown in 24 multiwell plates for two weeks on root halves using a modification of the established 5-day biofilm protocol (Gmür & Guggenheim 1983). […] The turbidity was adjusted with fresh mFUM to OD at 540 nm (Labsystems iEMS Reader MF) to 0.5. […]\nAfter each root had been subjected to its respective irrigation protocol and imaging steps, the root halves were aseptically placed in a 9 cm petri dish (SLS, East Riding of Yorkshire, UK). […] After the incubation, the numbers of colonies on FAA plates were counted. […]", "note": "Marks after values point to notes of the source that are not given here.", "data": [{"compound": "OCl", "note": "[Sodium hypochlorite]", "values": [{"measurement": "Microbial counts expressed as log10 (Mean ± SE) after anaerobic growth", "value": "0.51* Log10"}]}]}
